Columns and labels:
whole blood clots = test: Whole blood dosage (effective antifibrinolytic dosage, tPA-triggered clot lysis); parameters: species or system human; details: 10 µg/mL tPA, 37 °C
Method: Blood was obtained by venipuncture from healthy donors after they signed an informed consent form. Blood was transferred into vacuum non-anticoagulant Vacutainer® tubes (BD, Franklin Lakes, NJ, USA). Blood samples were immediately used for the assay after extraction.
Glass tubes were prepared with 20 µL of a mixture of tPA, in a final concentration of 10 µg/mL, and the evaluated compounds, in a final concentration of 10, 20, 40, or 60 µM in Tris HCl buffer. A control clot was obtained with 20 µL of tPA with no compound. Then, 800 µL of blood was transferred to each tube and tubes were monitored for clot formation and lysis. The assay was performed with casual shaking. […] The ex vivo effective dosage for each compound was determined by their ability to inhibit complete clot degradation. Photographs were taken after 24 h of incubation.

in vivo = details: dog
Method: In the case of dogs, one male and one female Beagle dog were selected for the study. A period of 5 days was used to allow dogs to acclimatize, and at the start of dosing, they were between 5 and 6 months old. Dogs were housed individually per sex in an environmentally controlled room, maintained at 24 ± 2 °C and 71.5 ± 4.5% relative humidity, on a 12–12 h light–dark cycle (beginning at 06:00 h) with 17 or 22 air changes per hour. Dogs were provided with 300 g feed every day and with water ad libitum.
Compound 5 was administered via an intravenous bolus injection through the cephalic vein of the forelimb, using a sterile needle attached to a graduated syringe. An initial dose level of 50 mg/kg b. wt. […] Following a washout period of 7 days, a dose of 75 mg/kg b. wt. […] A constant volume of 1 mL/kg b. wt. was used, with individual doses adjusted to the most recent recorded body weight of each animal. Dogs were observed twice daily for clinical, mortality, and morbidity signs throughout the study period of 7 days. Body weight was recorded on dosing day and every two days during the assay period. Additionally, a daily record of individual dog feed intake and leftover feed was maintained. Blood samples were obtained prior to dosing and on day 7. Blood was extracted either from the cephalic vein in the forelimb or the lateral saphenous vein in the hind limb. Around 2.0 mL of blood was collected in non-heparin centrifuge tubes for serum separation to conduct clinical chemistry estimations. An additional 0.5 mL of blood was collected in EDTA-containing vials for hematology analysis and another 0.5 mL of blood was collected in tubes containing a 3.2% sodium citrate solution for Prothrombin time determination. Dogs were fasted overnight, with only water allowed prior to blood collection. Hematology and clinical chemistry determinations are available upon request. Dogs were euthanized by an intravenous injection of barbiturate (thiopentone sodium 100 mg/kg b. wt.). Then, a comprehensive gross necropsy was performed. Dogs were first examined for external abnormalities. The cranial, thoracic, and abdominal cavities were then dissected, and a thorough examination of the organs was conducted. Specifically, the liver, testes, uterus, brain, and kidneys were collected and subjected to microscopic examination using paraffin-embedded tissue stained with hematoxylin-eosin.

Structure (SMILES): O=c1[nH]nc(-c2cn(C3CCNCC3)nn2)o1 [compound 5]
- effective dosage (concentration preventing complete clot degradation after 24 h) (whole blood clots): 10 µM
- MTD at 7 days (in vivo; both, Beagle, iv): 75 mg/kg
- Microscopic Findings, kidneys (in vivo): Kidneys (bilateral): min ima l infiltration
- Microscopic Findings, testes (in vivo): Testes (bilateral): immature – present
- hematology and clinical chemistry parameters (in vivo): did not show any alteration
- terminal body and organ weight (in vivo): no treatment-related alterations

From PMC11241262, “Unravelling the Antifibrinolytic Mechanism of Action of the 1,2,3-Triazole Derivatives” (International Journal of Molecular Sciences, 2024)
